This data set can be described thus: solubility of drug substance in pH 5.0 buffer solution. Conditions: aqueous buffer. The class given is physicochemical.

In brackets after ≈: the same amount, converted by molar mass.

For the compound `CCOc1cc(CC(=O)N[C@@H](CC(C)C)c2ccccc2N2CCCCC2)ccc1C(=O)O` [repaglinide, (S)-2-Ethoxy-4-[2-[[3-methyl-1-[2-(1-piperidinyl)phenyl]butyl]amino]-2-oxoethyl]benzoic acid], the concentration in solution (solubility) was 9 µg/mL (≈ 19.9 µM).

Usually solubility stands for the concentration that dissolves in the medium under given conditions.
